Results published in paper PMC6838151 (Scientific Reports, 2019).
≈ marks a conversion by molar mass, not a printed value. Where two headings read alike, the source gives them in different places.

What was measured:
S. cerevisiae AD1-8 = assay: MIC50 growth inhibition, S. cerevisiae AD1-8 (lacks major ABC transporters), 48 h; assay type: cell-based, Saccharomyces cerevisiae; settings: for MIC50: Saccharomyces cerevisiae
Description: The following strains of S. cerevisiae were used in this study: BY4741 (wild type towards erg6Δ, ACC Y00000; MATa; his3Δ1; leu2Δ0; met15Δ0; ura3Δ0), erg6Δ (ACC Y00568; BY4741 isogenic with YML008c::kanMX4), W303 (wild type towards AD1-8; MATα; leu2-3,112 trp1-1 can1-100 ura3-1 ade2-1 his3-11,15 AD1-8 (W303 isogenic with pdr1-3, ura3, his1, yor1∆::hisG, snq2∆::hisG, pdr5∆::hisG, pdr10∆::hisG, pdr11∆:: hisG, ycf1∆::hisG, pdr3∆::hisG, pdr15∆::hisG). BY4741 and erg6Δ were acquired from EUROSCARF, Frankfurt, Germany; W303 and AD1-8 were kind gifts from Prof. A. Goffeau, Chaire Internationale Blaise Pascal, Lab. Genet. Mol., École Normale Supérieure, Paris, and Prof. M. Ghislain, Université Catholique de Louvain, Faculté des sciences Agronomiques, Louvain-la-Neuve, Belgium. Visible turbid overnight cultures of S. cerevisiae strains were prepared and diluted to A600 ≈ 0.1 in fresh Yeast Extract – Peptone - Dextrose (YPD) medium. […] The yeast cultures were statically incubated at 30 °C for 48 hours with compounds[88]. The dose-response curves were analysed with GraphPad Prism 5 software (San Diego, USA) or a microplate reader ASYS UVM (Biogenet). All values presented are the mean of at least three independent experiments.

[1] = tested on: hASCs (p53, p21, BAX, BCL-2 transcripts); assay: Apoptosis-related transcripts by qRT-PCR in hASCs; assay type: cell-based, human; settings: 20 µM, 24 h; for expression of p53 gene / expression of p21 transcript / relative expression level of BAX / relative expression level of BCL-2: hASCs; for expression of p53 gene: vs control cells; for expression of p21 transcript: vs control group, p < 0.001; for relative expression level of BAX / relative expression level of BCL-2: vs control, differences not significant
Description: Cellular apoptosis level was assessed using quantitative reverse transcriptase real-time polymerase chain reaction (qRT-PCR). First, the cells were seeded in a 24-well plate at a concentration of 3 × 10^4 cells/well in DMEM with Nutrient F-12 Ham complete medium and left in the CO2 incubator overnight to allow cells to attach. […] After 24 h of challenge with the compounds, the cells were homogenized with TRI Reagent and total RNA was isolated by phenol-chloroform extraction and ethanol precipitation. RNA purity and quantity were measured at a wavelength of 260 and 280 nm (Epoch, Biotek). Genomic DNA was removed with DNase I, RNase-free ([…]) (Thermo Scientific, Poland) and cDNA was synthesized using RevertAid First Strand cDNA Synthesis Kit (Thermo Scientific, Poland). 150 ng of total RNA served as a template for a single reaction using T100 Thermo Cycler (Bio-Rad, USA). The expression levels of p53 tumor suppressor, cyclin dependent kinase inhibitor 1A (p21), apoptosis regulators BAX and BCL-2 were determined. qRT-PCR was performed on a CFX Connect^TM Real-Time PCR Detection System (Bio-Rad) using SensiFast SYBR & Fluorescein Kit (Bioline, Cincinnati, OH, USA) and primer pairs as listed in Table S4 in ESI. 500 nM of specific primers and 1 µL of cDNA in a 10 µL final volume were applied in each reaction. The quantitative expression of the genes was calculated by the 2^−ΔΔCT method using GAPDH as housekeeping genes.
Statistical analysis was performed with GraphPad Prism 5 software (San Diego, USA). All data values are presented as mean ± SD, measured in triplicates or more. Statistical significance between groups was determined using two-way ANOVA grouped analysis.

[2] = tested on: S. cerevisiae WT (BY4741); assay: MIC50 growth inhibition, S. cerevisiae wt BY4741, 48 h; assay type: cell-based, Saccharomyces cerevisiae; settings: YPD, 30 °C
Description: For the preliminary studies of the biological activity of the studied compound we chose S. cerevisiae, which is generally considered a non-pathogenic organism, but currently recognized as a potentially important agent causing opportunistic infections against immunocompromised patients. In order to assess whether all the Ke derivatives share the mechanism of action with the parent compound, or if they might present different or additional modes of action, the inhibitory concentration MIC50 (Table 2) was determined on the basis of the dose-response curves (Fig. S11 in ESI) in a 48 h assay against S. cerevisiae wt strain BY4741 and the deletion mutant erg6Δ, which lacks the gene coding for the S-adenosylmethionine: 24-methyltransferase[52], accumulating cholesta-5,7,24-trienol and zymosterol instead of ergosterol. There are several studies reporting that the ERG6 gene deletion may increase the resistance of S. cerevisiae cells to azole compounds[54]–[56]. […] The value determined for the wt strain is in very good agreement with previous studies carried out under similar condition (48 h, 30 °C) (e.g.[57]).
The following strains of S. cerevisiae were used in this study: BY4741 (wild type towards erg6Δ, ACC Y00000; MATa; his3Δ1; leu2Δ0; met15Δ0; ura3Δ0), erg6Δ (ACC Y00568; BY4741 isogenic with YML008c::kanMX4), W303 (wild type towards AD1-8; MATα; leu2-3,112 trp1-1 can1-100 ura3-1 ade2-1 his3-11,15 AD1-8 (W303 isogenic with pdr1-3, ura3, his1, yor1∆::hisG, snq2∆::hisG, pdr5∆::hisG, pdr10∆::hisG, pdr11∆:: hisG, ycf1∆::hisG, pdr3∆::hisG, pdr15∆::hisG). BY4741 and erg6Δ were acquired from EUROSCARF, Frankfurt, Germany; W303 and AD1-8 were kind gifts from Prof. A. Goffeau, Chaire Internationale Blaise Pascal, Lab. Genet. Mol., École Normale Supérieure, Paris, and Prof. M. Ghislain, Université Catholique de Louvain, Faculté des sciences Agronomiques, Louvain-la-Neuve, Belgium. Visible turbid overnight cultures of S. cerevisiae strains were prepared and diluted to A600 ≈ 0.1 in fresh Yeast Extract – Peptone - Dextrose (YPD) medium. The cultures were transferred to 96 microtiter well plates containing aliquots of serially diluted antifungal drugs (Ke and its derivatives: KeP, KeOP, KeSP, KeSeP), prepared from DMS stock solutions and drug-free controls. The yeast cultures were statically incubated at 30 °C for 48 hours with compounds[88]. The dose-response curves were analysed with GraphPad Prism 5 software (San Diego, USA) or a microplate reader ASYS UVM (Biogenet). All values presented are the mean of at least three independent experiments.

[3] = Saccharomyces cerevisiae, read-out: MIC50
[4] = AD18, S. cerevisiae AD1-8, YPD, 30 °C, 48 h, read-out: MIC50

Structure (SMILES)	MIC50 (S. cerevisiae AD1-8; AD18, 48 h) [µM]	induction of apoptosis in hASC cultures [1]	expression of p53 gene [1]	expression of p21 transcript [1]	MIC50 [2, 3] [µM]	MIC50 (S. cerevisiae AD1-8; [4]) [µM]	relative expression level of BAX [1]	relative expression level of BCL-2 [1]	MIC50 against AD1-8 lower than against W303 cells (S. cerevisiae AD1-8; AD1-8 vs W303)	MIC50 [2]
CC(=O)N1CCN(c2ccc(OCC3COC(Cn4ccnc4)(c4ccc(Cl)cc4Cl)O3)cc2)CC1 (stereo not shown) [Ke, ketoconazole, reference compound]	0.02 (≈ 0.0106 µg/mL)	did not induce apoptosis	no significant changes	elevated expression	0.865 (≈ 0.46 µg/mL)					
Clc1ccc([C@@]2(Cn3ccnc3)OC[C@H](COc3ccc(N4CCN(CP(c5ccccc5)c5ccccc5)CC4)cc3)O2)c(Cl)c1 (racemic) [KeP, Ph2PCH2-Ke]		did not induce apoptosis	no significant changes	elevated expression	9.02 (≈ 6.2 µg/mL)	0.2 (≈ 0.138 µg/mL)	higher	higher		
Clc1ccc([C@@]2(Cn3ccnc3)OC[C@H](COc3ccc(N4CCN(CP(=[Se])(c5ccccc5)c5ccccc5)CC4)cc3)O2)c(Cl)c1 [KeSeP, Ph2P(Se)CH2-Ke]					1.24 (≈ 0.954 µg/mL)	0.2 (≈ 0.153 µg/mL)				
S=P(CN1CCN(c2ccc(OC[C@H]3CO[C@](Cn4ccnc4)(c4ccc(Cl)cc4Cl)O3)cc2)CC1)(c1ccccc1)c1ccccc1 [KeSP, Ph2P(S)CH2-Ke]	0.2 (≈ 0.144 µg/mL)				> 200				more than 3 orders of magnitude	inactive
O=P(CN1CCN(c2ccc(OC[C@H]3CO[C@](Cn4ccnc4)(c4ccc(Cl)cc4Cl)O3)cc2)CC1)(c1ccccc1)c1ccccc1 (racemic) [KeOP, Ph2P(O)CH2-Ke]		did not induce apoptosis	no significant changes	elevated expression	0.00416 (≈ 0.00293 µg/mL)	0.05 (≈ 0.0352 µg/mL)	higher	higher		
